Measured values reported in patent US8557763B2, “Synthetic peptides that enhance tight junction permeability” (Alba Therapeutics Corporation, priority 2007, dated 2013).
Where no end group is shown, it is not given here. [ ]: non-standard residue; d: D form. AllylGly = C=CC[C@H](N)C(=O)O

Key:
[1] = system: CaCo2 monolayers; test: Lucifer Yellow (LY) permeability assay through CaCo2 monolayers; type: cell-based; parameters: key to Enhanced LY permeability: + indicates an enhancement of the permeability of the tight junctions were observed; − indicates no enhancement of permeability was observed; conditions: CaCo2 monolayers, Lucifer Yellow flux
Source text: (§1) Agonists of tight junctions can be identified by their ability to enhance the flux of compounds (e.g. ions, Lucifer Yellow) through a cell monolayer that comprises tight junctions; or by their ability to reduce TEER across a cell monolayer that comprises tight junctions. Treatment of CaCo2 monolayers with peptide FCIGRL (SEQ ID NO: 1) led to a 51-fold enhancement of Lucifer Yellow permeability through CaCo2 monolayers compared to vehicle alone.
(§2) Tight junction agonists can be identified and tested using the following method:
(§3) Determination of TEER and Lucifer Yellow Flux
(§4) Prepare Modified Hank's Balanced Salt Solution (MHBSS) by obtaining 1 L bottle of HBSS removing 10 ml of HBSS and replacing it with 10 ml HEPES buffer pH 7.0. Adjust pH to 7.4±0.1 using concentrated NaOH (10N).
(§5) Remove CaCo-2 cells from incubator, grown on 12-well, 3.0 μM, polycarbonate Transwell® filters (Corning) and record passage#, date cells seeded and age in days.
(§6) Aspirate cell culture medium from both the apical (AP) and basolateral (BL) compartments, replacing with 0.5 ml and 1.5 ml of MHBSS, respectively. Incubate cells at 37° C. for 30 minutes.
(§7) Aspirate solution from the apical compartment of each filter (n=3 per condition) and replace with 0.5 ml of control and test solutions containing Lucifer Yellow and test compound if appropriate.
(§8) Place all plates into incubator set at 37° C. (±0.2), 50 RPM (±5) for a total of 180 minutes.
At t=60, 120 and 180 minutes remove […] from each basolateral compartment and place it in a 96-well plate for Lucifer Yellow analysis, replace with 100 μl of MHBSS.
Make a Lucifer Yellow standard curve with the following dilutions (7500 μM, 3750 μM, 750 μM, 375 μM, 37.5 μM, 7.5 μM, 3.75 μM, 0.75 μM) and pipette 100 μL of each into a 96-well plate except for the first three standards mentioned above which require a 1:10 dilutions prior to transferring to the 96-well plate.
Harvest the remaining start solutions and what is left in each apical compartment into 1.5 ml vials. Freeze at −20° C. for future analysis.
Analyze each 96-well plate in a Tecan Spectra Fluor Plus using Magellan at 485 and 535 nm.
(§9) Cells: CaCo-2 cells passage 40-60 grown on Transwell® plates for 21-28 days
(§10) Culture Medium: DMEM supplemented with 10% fetal bovine serum, 1% NEAA, 1% Penn/Strep
(§11) Buffers: Hank's Balanced Salt Solution (HBSS) without calcium and magnesium
(§12) Flasks: 100×20 mm Tissue culture dish Falcon.
(§13) Plates: 12 well polycarbonate Transwell® filters; 0.3 uM pore size

[2] = system: CaCo2 monolayers; test: Trans Epithelial Electric Resistance (TEER) across CaCo2 monolayers; type: cell-based; parameters: key to Reduced TEER: + indicates an enhancement of the permeability of the tight junctions were observed; − indicates no enhancement of permeability was observed; conditions: CaCo2 monolayers
Source text: as §1
Treatment of CaCo2 monolayers with peptide FCIGRL led to a 16-fold decrease in TEER across CaCo2 monolayers compared to vehicle alone.
as §2, §3, §4, §5, §6
Using the MilliCell®-ERS instrument (Millipore), measure and record the transepithelial electrical resistance (TEER) across each filter and record.
as §7, §8
At t=30, 60, 120 and 180 minutes, measure and record the transepithelial electrical resistance (TEER) across each filter using the MilliCell-ERS instrument.
as §9, §10, §11, §12, §13

Row | Substance | Enhanced LY permeability [1] | Reduced TEER [2]
1 | 27 (F[AllylGly]FGRL-NH2; N-terminus assumed; SMILES C=CC[C@H](NC(=O)[C@@H](N)Cc1ccccc1)C(=O)N[C@@H](Cc1ccccc1)C(=O)NCC(=O)N[C@@H](CCCNC(=N)N)C(=O)N[C@@H](CC(C)C)C(N)=O) [compound 27] | + | +
2 | 71 (F[AllylGly]IGPL-NH2; N-terminus assumed; SMILES C=CC[C@H](NC(=O)[C@@H](N)Cc1ccccc1)C(=O)N[C@H](C(=O)NCC(=O)N1CCC[C@H]1C(=O)N[C@@H](CC(C)C)C(N)=O)[C@@H](C)CC) [compound 71] | + | −
3 | 28 (F[AllylGly]VGRL-NH2; N-terminus assumed; SMILES C=CC[C@H](NC(=O)[C@@H](N)Cc1ccccc1)C(=O)N[C@H](C(=O)NCC(=O)N[C@@H](CCCNC(=N)N)C(=O)N[C@@H](CC(C)C)C(N)=O)C(C)C) [compound 28] | − | −
4 | 21 (I[AllylGly]IGRL-NH2; N-terminus assumed; SMILES C=CC[C@H](NC(=O)[C@@H](N)[C@@H](C)CC)C(=O)N[C@H](C(=O)NCC(=O)N[C@@H](CCCNC(=N)N)C(=O)N[C@@H](CC(C)C)C(N)=O)[C@@H](C)CC) [compound 21] | − | −
5 | 87 (F[AllylGly]IGRI-NH2; N-terminus assumed; SMILES C=CC[C@H](NC(=O)[C@@H](N)Cc1ccccc1)C(=O)N[C@H](C(=O)NCC(=O)N[C@@H](CCCNC(=N)N)C(=O)N[C@H](C(N)=O)[C@@H](C)CC)[C@@H](C)CC) [compound 87] | + | +
6 | 25 (F[AllylGly]LGRL-NH2; N-terminus assumed; SMILES C=CC[C@H](NC(=O)[C@@H](N)Cc1ccccc1)C(=O)N[C@@H](CC(C)C)C(=O)NCC(=O)N[C@@H](CCCNC(=N)N)C(=O)N[C@@H](CC(C)C)C(N)=O) [compound 25] | + | +
7 | 43 (F[AllylGly]IPRL-NH2; N-terminus assumed; SMILES C=CC[C@H](NC(=O)[C@@H](N)Cc1ccccc1)C(=O)N[C@H](C(=O)N1CCC[C@H]1C(=O)N[C@@H](CCCNC(=N)N)C(=O)N[C@@H](CC(C)C)C(N)=O)[C@@H](C)CC) [compound 43] | − | −
8 | 57 (F[AllylGly]IGEL-NH2; N-terminus assumed; SMILES C=CC[C@H](NC(=O)[C@@H](N)Cc1ccccc1)C(=O)N[C@H](C(=O)NCC(=O)N[C@@H](CCC(=O)O)C(=O)N[C@@H](CC(C)C)C(N)=O)[C@@H](C)CC) [compound 57] | − | −
9 | 6 (Q[AllylGly]IGRL-NH2; N-terminus assumed; SMILES C=CC[C@H](NC(=O)[C@@H](N)CCC(N)=O)C(=O)N[C@H](C(=O)NCC(=O)N[C@@H](CCCNC(=N)N)C(=O)N[C@@H](CC(C)C)C(N)=O)[C@@H](C)CC) [compound 6] | − | −
10 | 10 (E[AllylGly]IGRL-NH2; N-terminus assumed; SMILES C=CC[C@H](NC(=O)[C@@H](N)CCC(=O)O)C(=O)N[C@H](C(=O)NCC(=O)N[C@@H](CCCNC(=N)N)C(=O)N[C@@H](CC(C)C)C(N)=O)[C@@H](C)CC) [compound 10] | − | −
11 | 75 (F[AllylGly]IGRR-NH2; N-terminus assumed; SMILES C=CC[C@H](NC(=O)[C@@H](N)Cc1ccccc1)C(=O)N[C@H](C(=O)NCC(=O)N[C@@H](CCCNC(=N)N)C(=O)N[C@@H](CCCNC(=N)N)C(N)=O)[C@@H](C)CC) [compound 75] | + | −
12 | 32 (F[AllylGly]DGRL-NH2; N-terminus assumed; SMILES C=CC[C@H](NC(=O)[C@@H](N)Cc1ccccc1)C(=O)N[C@@H](CC(=O)O)C(=O)NCC(=O)N[C@@H](CCCNC(=N)N)C(=O)N[C@@H](CC(C)C)C(N)=O) [compound 32] | + | +
13 | 18 (H[AllylGly]IGRL-NH2; N-terminus assumed; SMILES C=CC[C@H](NC(=O)[C@@H](N)Cc1c[nH]cn1)C(=O)N[C@H](C(=O)NCC(=O)N[C@@H](CCCNC(=N)N)C(=O)N[C@@H](CC(C)C)C(N)=O)[C@@H](C)CC) [compound 18] | − | −
14 | 45 (F[AllylGly]IHRL-NH2; N-terminus assumed; SMILES C=CC[C@H](NC(=O)[C@@H](N)Cc1ccccc1)C(=O)N[C@H](C(=O)N[C@@H](Cc1c[nH]cn1)C(=O)N[C@@H](CCCNC(=N)N)C(=O)N[C@@H](CC(C)C)C(N)=O)[C@@H](C)CC) [compound 45] | + | +
15 | 88 (F[AllylGly]IGRW-NH2; N-terminus assumed; SMILES C=CC[C@H](NC(=O)[C@@H](N)Cc1ccccc1)C(=O)N[C@H](C(=O)NCC(=O)N[C@@H](CCCNC(=N)N)C(=O)N[C@@H](Cc1c[nH]c2ccccc12)C(N)=O)[C@@H](C)CC) [compound 88] | + | +
16 | 5 (M[AllylGly]IGRL-NH2; N-terminus assumed; SMILES C=CC[C@H](NC(=O)[C@@H](N)CCSC)C(=O)N[C@H](C(=O)NCC(=O)N[C@@H](CCCNC(=N)N)C(=O)N[C@@H](CC(C)C)C(N)=O)[C@@H](C)CC) [compound 5] | + | −
17 | 84 (F[AllylGly]IGRN-NH2; N-terminus assumed; SMILES C=CC[C@H](NC(=O)[C@@H](N)Cc1ccccc1)C(=O)N[C@H](C(=O)NCC(=O)N[C@@H](CCCNC(=N)N)C(=O)N[C@@H](CC(N)=O)C(N)=O)[C@@H](C)CC) [compound 84] | + | +
18 | 15 (W[AllylGly]IGRL-NH2; N-terminus assumed; SMILES C=CC[C@H](NC(=O)[C@@H](N)Cc1c[nH]c2ccccc12)C(=O)N[C@H](C(=O)NCC(=O)N[C@@H](CCCNC(=N)N)C(=O)N[C@@H](CC(C)C)C(N)=O)[C@@H](C)CC) [compound 15] | + | −
19 | 31 (F[AllylGly]HGRL-NH2; N-terminus assumed; SMILES C=CC[C@H](NC(=O)[C@@H](N)Cc1ccccc1)C(=O)N[C@@H](Cc1c[nH]cn1)C(=O)NCC(=O)N[C@@H](CCCNC(=N)N)C(=O)N[C@@H](CC(C)C)C(N)=O) [compound 31] | + | +
20 | 73 (F[AllylGly]IGRH-NH2; N-terminus assumed; SMILES C=CC[C@H](NC(=O)[C@@H](N)Cc1ccccc1)C(=O)N[C@H](C(=O)NCC(=O)N[C@@H](CCCNC(=N)N)C(=O)N[C@@H](Cc1c[nH]cn1)C(N)=O)[C@@H](C)CC) [compound 73] | + | +
21 | 35 (F[AllylGly]RGRL-NH2; N-terminus assumed; SMILES C=CC[C@H](NC(=O)[C@@H](N)Cc1ccccc1)C(=O)N[C@@H](CCCNC(=N)N)C(=O)NCC(=O)N[C@@H](CCCNC(=N)N)C(=O)N[C@@H](CC(C)C)C(N)=O) [compound 35] | + | +
22 | 17 (A[AllylGly]IGRL-NH2; N-terminus assumed; SMILES C=CC[C@H](NC(=O)[C@H](C)N)C(=O)N[C@H](C(=O)NCC(=O)N[C@@H](CCCNC(=N)N)C(=O)N[C@@H](CC(C)C)C(N)=O)[C@@H](C)CC) [compound 17] | − | −
23 | 55 (F[AllylGly]IGHL-NH2; N-terminus assumed; SMILES C=CC[C@H](NC(=O)[C@@H](N)Cc1ccccc1)C(=O)N[C@H](C(=O)NCC(=O)N[C@@H](Cc1c[nH]cn1)C(=O)N[C@@H](CC(C)C)C(N)=O)[C@@H](C)CC) [compound 55] | − | −
